According to article PMC6540285, “Evaluation of Protein Kinase Inhibitors with PLK4 Cross-Over Potential in a Pre-Clinical Model of Cancer” (International Journal of Molecular Sciences, 2019):

What was measured:
MAPK11 (p38 beta) = MAPK11 (p38 beta) (Homo sapiens, UniProt Q15759); experiment: SelectScreen kinase profiling, ZLYTE; format: biochemical
MARK4 = MARK4 (Homo sapiens, UniProt Q96L34); experiment: SelectScreen kinase profiling, ZLYTE; format: biochemical; conditions: MARK4, 10 µM
PRKCB2 (PKC beta II) = PRKCB2 (PKC beta II) (Homo sapiens, UniProt P05771); experiment: SelectScreen kinase profiling, ZLYTE; format: biochemical
MERTK (cMER) A708S = MERTK (cMER) A708S (Homo sapiens, UniProt Q12866, A708S); experiment: SelectScreen kinase profiling, LanthaScreen binding
FGFR3 = FGFR3 (Homo sapiens, UniProt P22607); experiment: SelectScreen kinase profiling, ZLYTE; format: biochemical; conditions: FGFR3, 10 µM
LRRK2 G2019S = LRRK2 G2019S (Homo sapiens, UniProt Q5S007, G2019S); experiment: SelectScreen kinase profiling, Adapta; format: biochemical
FGR = FGR (Homo sapiens, UniProt P09769); experiment: SelectScreen kinase profiling, ZLYTE; format: biochemical
ROS1 = ROS1 (Homo sapiens, UniProt P08922); experiment: SelectScreen kinase profiling, ZLYTE; format: biochemical; conditions: ROS1, 10 µM
KIT D816H = KIT D816H (Homo sapiens, UniProt P10721, D816H); experiment: SelectScreen kinase profiling, LanthaScreen binding
ABL1 = ABL1 (Homo sapiens, UniProt P00519); experiment: SelectScreen kinase profiling, ZLYTE; format: biochemical; conditions: ABL1, 10 µM
KIT D816V = KIT D816V (Homo sapiens, UniProt P10721, D816V); experiment: SelectScreen kinase profiling, LanthaScreen binding
[1] = biological target: MAP2K1 (MEK1) S218D S222D (Homo sapiens, UniProt Q02750, S218D/S222D); experiment: as above
MAP3K8 (COT) = MAP3K8 (COT) (Homo sapiens, UniProt P41279); experiment: SelectScreen kinase profiling, ZLYTE; format: biochemical
BLK = BLK (Homo sapiens, UniProt P51451); experiment: SelectScreen kinase profiling, ZLYTE; format: biochemical
MAPK9 (JNK2) = MAPK9 (JNK2) (Homo sapiens, UniProt P45984); experiment: SelectScreen kinase profiling, LanthaScreen binding
[2] = biological target: MAPK14 (p38 alpha) Direct (Homo sapiens, UniProt Q16539); experiment: SelectScreen kinase profiling, ZLYTE; format: biochemical
MAP3K19 (YSK4) = MAP3K19 (YSK4) (Homo sapiens, UniProt Q56UN5); experiment: SelectScreen kinase profiling, ZLYTE; format: biochemical
CDK9/cyclin T1 = CDK9/cyclin T1 (Homo sapiens, UniProt P50750); experiment: SelectScreen kinase profiling, Adapta; format: biochemical; conditions: CDK9/cyclin T1, 10 µM
GRK4 = GRK4 (Homo sapiens, UniProt P32298); experiment: SelectScreen kinase profiling, ZLYTE; format: biochemical; conditions: GRK4, 10 µM
AMPK (A2/B2/G3) = AMPK (A2/B2/G3) (Homo sapiens, UniProt P54646); experiment: SelectScreen kinase profiling, ZLYTE; format: biochemical
HIPK4 = HIPK4 (Homo sapiens, UniProt Q8NE63); experiment: SelectScreen kinase profiling, ZLYTE; format: biochemical; conditions: HIPK4, 10 µM
NTRK2 (TRKB) = NTRK2 (TRKB) (Homo sapiens, UniProt Q16620); experiment: SelectScreen kinase profiling, ZLYTE; format: biochemical
FGFR3 K650E = FGFR3 K650E (Homo sapiens, UniProt P22607, K650E); experiment: SelectScreen kinase profiling, ZLYTE; format: biochemical
LRRK2 = LRRK2 (Homo sapiens, UniProt Q5S007); experiment: SelectScreen kinase profiling, Adapta; format: biochemical; conditions: LRRK2, 10 µM
ULK2 = ULK2 (Homo sapiens, UniProt Q8IYT8); experiment: SelectScreen kinase profiling, LanthaScreen binding; conditions: ULK2, 10 µM
Excerpt: (§1) Kinase Technology % Inhibition Avg Kinase Technology % Inhibition Avg […]

STK33 = STK33 (Homo sapiens, UniProt Q9BYT3); experiment: as above; conditions: STK33, 10 µM
Excerpt: as §1

WNK2 = WNK2 (Homo sapiens, UniProt Q9Y3S1); experiment: as above; conditions: WNK2, 10 µM
Excerpt: as §1

TGFBR2 = TGFBR2 (Homo sapiens, UniProt P37173); experiment: as above; conditions: TGFBR2, 10 µM
Excerpt: as §1

ZAK = ZAK (Homo sapiens, UniProt Q9NYL2); experiment: as above
Excerpt: as §1

PASK = PASK (Homo sapiens, UniProt Q96RG2); experiment: SelectScreen kinase profiling, ZLYTE; format: biochemical
LIMK2 = LIMK2 (Homo sapiens, UniProt P53671); experiment: SelectScreen kinase profiling, LanthaScreen binding; conditions: LIMK2, 10 µM
KIT T670E = KIT T670E (Homo sapiens, UniProt P10721, T670E); experiment: as above
CASK = CASK (Homo sapiens, UniProt O14936); experiment: as above
AMPK A2/B1/G1 = AMPK A2/B1/G1 (Homo sapiens, UniProt P54646); experiment: SelectScreen kinase profiling, ZLYTE; format: biochemical; conditions: AMPK A2/B1/G1, 10 µM
LCK = LCK (Homo sapiens, UniProt P06239); experiment: SelectScreen kinase profiling, ZLYTE; format: biochemical
AMPK (A1/B2/G2) = AMPK (A1/B2/G2) (Homo sapiens, UniProt Q13131); experiment: SelectScreen kinase profiling, ZLYTE; format: biochemical
CHEK2 (CHK2) = CHEK2 (CHK2) (Homo sapiens, UniProt O96017); experiment: SelectScreen kinase profiling, ZLYTE; format: biochemical
MET D1228H = MET D1228H (Homo sapiens, UniProt P08581, D1228H); experiment: SelectScreen kinase profiling, LanthaScreen binding
RET V804M = RET V804M (Homo sapiens, UniProt P07949, V804M); experiment: as above

MAP2K1 (MEK1) S218D S222D, sequence (Q02750 whole entry S218D/S222D): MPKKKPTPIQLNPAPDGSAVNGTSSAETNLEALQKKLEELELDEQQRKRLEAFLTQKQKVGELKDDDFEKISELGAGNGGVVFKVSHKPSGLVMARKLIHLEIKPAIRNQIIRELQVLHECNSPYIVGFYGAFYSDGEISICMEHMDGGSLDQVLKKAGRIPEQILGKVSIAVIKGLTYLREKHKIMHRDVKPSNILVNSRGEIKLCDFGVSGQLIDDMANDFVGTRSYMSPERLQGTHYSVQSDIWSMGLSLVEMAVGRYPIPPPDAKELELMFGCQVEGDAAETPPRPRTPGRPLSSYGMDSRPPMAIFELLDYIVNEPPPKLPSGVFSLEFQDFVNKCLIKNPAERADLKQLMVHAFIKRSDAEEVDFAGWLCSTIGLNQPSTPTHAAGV
BLK, sequence (P51451 whole entry): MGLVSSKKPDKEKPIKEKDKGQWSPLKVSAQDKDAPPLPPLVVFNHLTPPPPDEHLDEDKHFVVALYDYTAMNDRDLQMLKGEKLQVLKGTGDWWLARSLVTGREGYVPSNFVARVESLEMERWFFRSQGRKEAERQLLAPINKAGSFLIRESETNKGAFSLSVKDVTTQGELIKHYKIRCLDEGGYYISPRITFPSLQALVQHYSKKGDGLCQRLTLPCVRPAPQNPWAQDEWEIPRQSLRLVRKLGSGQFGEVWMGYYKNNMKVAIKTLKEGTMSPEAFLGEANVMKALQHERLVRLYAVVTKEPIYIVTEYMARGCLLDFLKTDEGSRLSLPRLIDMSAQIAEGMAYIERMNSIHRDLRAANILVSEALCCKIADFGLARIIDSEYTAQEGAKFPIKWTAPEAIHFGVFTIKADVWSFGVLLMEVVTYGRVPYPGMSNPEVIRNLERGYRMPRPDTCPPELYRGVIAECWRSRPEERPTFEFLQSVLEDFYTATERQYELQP
FGR, sequence (P09769 whole entry): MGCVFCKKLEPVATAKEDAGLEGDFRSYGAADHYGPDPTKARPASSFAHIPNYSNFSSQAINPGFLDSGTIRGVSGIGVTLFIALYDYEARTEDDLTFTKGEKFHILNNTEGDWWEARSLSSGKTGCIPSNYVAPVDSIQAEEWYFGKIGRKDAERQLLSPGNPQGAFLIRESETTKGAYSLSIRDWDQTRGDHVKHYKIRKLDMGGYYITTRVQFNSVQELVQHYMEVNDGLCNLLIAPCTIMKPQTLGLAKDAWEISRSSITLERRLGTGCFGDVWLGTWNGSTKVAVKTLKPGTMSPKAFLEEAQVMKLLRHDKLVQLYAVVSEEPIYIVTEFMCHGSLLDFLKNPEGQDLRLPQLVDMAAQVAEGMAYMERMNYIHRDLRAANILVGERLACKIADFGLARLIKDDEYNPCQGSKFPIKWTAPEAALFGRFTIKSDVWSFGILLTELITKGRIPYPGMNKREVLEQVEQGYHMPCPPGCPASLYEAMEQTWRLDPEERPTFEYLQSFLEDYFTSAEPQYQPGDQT
GRK4, sequence (P32298 whole entry): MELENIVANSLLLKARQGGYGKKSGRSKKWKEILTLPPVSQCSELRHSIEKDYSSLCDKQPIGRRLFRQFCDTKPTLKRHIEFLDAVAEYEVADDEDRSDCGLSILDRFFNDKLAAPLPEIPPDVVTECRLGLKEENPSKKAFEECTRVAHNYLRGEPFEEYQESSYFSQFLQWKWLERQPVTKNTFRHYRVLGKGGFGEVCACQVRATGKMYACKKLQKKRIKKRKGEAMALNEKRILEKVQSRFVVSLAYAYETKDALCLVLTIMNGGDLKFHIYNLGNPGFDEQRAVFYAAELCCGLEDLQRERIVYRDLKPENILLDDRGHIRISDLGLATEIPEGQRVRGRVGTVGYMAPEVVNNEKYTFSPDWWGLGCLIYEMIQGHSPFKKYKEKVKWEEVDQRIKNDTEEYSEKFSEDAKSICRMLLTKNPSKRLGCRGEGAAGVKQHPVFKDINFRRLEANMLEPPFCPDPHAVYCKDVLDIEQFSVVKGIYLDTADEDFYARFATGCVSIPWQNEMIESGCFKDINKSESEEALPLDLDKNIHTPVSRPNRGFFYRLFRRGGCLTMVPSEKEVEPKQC
KIT D816H, sequence (P10721 26-976 D816H): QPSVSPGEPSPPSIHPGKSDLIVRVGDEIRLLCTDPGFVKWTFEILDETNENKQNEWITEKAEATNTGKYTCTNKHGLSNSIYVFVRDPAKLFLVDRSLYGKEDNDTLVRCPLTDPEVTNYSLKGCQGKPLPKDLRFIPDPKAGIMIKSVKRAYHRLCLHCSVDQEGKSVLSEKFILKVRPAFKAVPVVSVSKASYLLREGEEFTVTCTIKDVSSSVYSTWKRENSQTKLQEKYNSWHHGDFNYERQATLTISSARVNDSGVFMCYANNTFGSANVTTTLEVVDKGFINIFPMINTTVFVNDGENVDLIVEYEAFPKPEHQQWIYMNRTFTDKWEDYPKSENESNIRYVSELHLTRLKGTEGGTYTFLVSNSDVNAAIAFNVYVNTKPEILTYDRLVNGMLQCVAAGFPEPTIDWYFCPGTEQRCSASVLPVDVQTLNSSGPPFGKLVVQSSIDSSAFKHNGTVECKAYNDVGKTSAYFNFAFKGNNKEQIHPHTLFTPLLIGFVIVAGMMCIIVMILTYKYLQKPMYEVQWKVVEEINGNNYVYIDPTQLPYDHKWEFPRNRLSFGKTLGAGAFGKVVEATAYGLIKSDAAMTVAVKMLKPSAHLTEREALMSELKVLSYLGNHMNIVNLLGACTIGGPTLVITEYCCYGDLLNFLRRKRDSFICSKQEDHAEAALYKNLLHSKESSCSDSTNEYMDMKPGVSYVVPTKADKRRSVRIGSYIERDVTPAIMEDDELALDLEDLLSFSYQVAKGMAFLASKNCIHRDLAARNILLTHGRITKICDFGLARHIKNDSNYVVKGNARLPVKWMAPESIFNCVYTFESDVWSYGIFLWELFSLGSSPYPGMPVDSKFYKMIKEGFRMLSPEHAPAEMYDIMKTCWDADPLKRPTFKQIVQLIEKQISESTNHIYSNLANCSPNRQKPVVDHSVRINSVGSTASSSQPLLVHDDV
PRKCB2 (PKC beta II), sequence (P05771 1-673 isoform P05771-2): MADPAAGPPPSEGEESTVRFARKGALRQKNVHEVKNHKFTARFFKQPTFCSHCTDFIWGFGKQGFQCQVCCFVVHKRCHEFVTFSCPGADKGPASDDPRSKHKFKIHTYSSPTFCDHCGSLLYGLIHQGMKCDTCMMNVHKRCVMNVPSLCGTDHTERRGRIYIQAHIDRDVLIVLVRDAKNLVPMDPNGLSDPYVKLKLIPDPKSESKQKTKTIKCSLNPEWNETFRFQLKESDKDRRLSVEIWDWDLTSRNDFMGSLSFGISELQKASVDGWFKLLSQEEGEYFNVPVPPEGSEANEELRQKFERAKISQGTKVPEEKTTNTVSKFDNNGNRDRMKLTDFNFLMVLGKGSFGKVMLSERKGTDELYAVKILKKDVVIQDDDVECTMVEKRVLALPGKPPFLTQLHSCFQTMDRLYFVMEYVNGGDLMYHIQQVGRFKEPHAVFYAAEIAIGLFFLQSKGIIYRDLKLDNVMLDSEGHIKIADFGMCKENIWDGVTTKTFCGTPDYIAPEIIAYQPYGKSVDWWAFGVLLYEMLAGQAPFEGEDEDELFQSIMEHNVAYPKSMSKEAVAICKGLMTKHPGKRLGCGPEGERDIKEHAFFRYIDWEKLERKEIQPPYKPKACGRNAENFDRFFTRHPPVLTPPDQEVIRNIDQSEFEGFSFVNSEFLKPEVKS
CDK9/cyclin T1, sequence (P50750 whole entry): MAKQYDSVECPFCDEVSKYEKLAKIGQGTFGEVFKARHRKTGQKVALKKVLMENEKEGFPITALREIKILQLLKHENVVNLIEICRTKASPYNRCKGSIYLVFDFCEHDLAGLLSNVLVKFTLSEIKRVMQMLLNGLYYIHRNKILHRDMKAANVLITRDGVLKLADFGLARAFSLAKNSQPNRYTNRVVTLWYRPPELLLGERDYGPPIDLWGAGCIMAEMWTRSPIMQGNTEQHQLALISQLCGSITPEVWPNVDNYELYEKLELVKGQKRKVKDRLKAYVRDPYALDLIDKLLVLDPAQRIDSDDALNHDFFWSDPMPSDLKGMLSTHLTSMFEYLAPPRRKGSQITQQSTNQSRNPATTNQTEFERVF
CDK9/cyclin T1, sequence (O60563 whole entry partner): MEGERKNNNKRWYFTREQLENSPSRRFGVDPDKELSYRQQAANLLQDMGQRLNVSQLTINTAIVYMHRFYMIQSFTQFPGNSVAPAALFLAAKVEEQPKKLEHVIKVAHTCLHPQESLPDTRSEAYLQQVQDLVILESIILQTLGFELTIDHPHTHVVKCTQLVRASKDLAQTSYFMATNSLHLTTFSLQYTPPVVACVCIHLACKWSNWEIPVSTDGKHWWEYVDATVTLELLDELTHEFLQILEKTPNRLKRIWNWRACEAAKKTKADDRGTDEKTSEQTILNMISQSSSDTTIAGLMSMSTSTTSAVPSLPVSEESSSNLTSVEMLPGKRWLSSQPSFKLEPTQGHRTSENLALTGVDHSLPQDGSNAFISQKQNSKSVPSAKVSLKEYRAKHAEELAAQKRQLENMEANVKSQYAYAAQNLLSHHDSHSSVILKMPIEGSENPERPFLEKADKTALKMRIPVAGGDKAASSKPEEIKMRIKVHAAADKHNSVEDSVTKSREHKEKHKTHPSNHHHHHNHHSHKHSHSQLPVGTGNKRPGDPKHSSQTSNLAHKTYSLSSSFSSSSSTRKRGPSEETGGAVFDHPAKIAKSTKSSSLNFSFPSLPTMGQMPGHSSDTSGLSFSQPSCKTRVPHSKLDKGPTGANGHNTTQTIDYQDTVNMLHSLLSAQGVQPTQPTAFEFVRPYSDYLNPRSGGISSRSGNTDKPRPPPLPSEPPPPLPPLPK
KIT T670E, sequence (P10721 26-976 T670E): as the sequence (P10721 26-976 D816H) above, with T645E, H791D counted along it
KIT D816V, sequence (P10721 26-976 D816V): as the sequence (P10721 26-976 D816H) above, with H791V counted along it

## O=C(c1ccc(/C=C/c2n[nH]c3ccccc23)cc1)N1CCNCC1 [KW-2449]
MAPK11 (p38 beta)
  inhibition at 10 µM: 90%
MARK4
  inhibition at 10 µM: 101%
PRKCB2 (PKC beta II)
  inhibition at 10 µM: 71%
MERTK (cMER) A708S
  inhibition at 10 µM: 74%
FGFR3
  inhibition at 10 µM: 97%
LRRK2 G2019S
  inhibition at 10 µM: 100%
FGR
  inhibition at 10 µM: 99%
ROS1
  inhibition at 10 µM: 98%
KIT D816H
  inhibition at 10 µM: 42%
ABL1
  inhibition at 10 µM: 100%
KIT D816V
  inhibition at 10 µM: 40%
[1]
  inhibition at 10 µM: 66%
MAP3K8 (COT)
  inhibition at 10 µM: 54%
BLK
  inhibition at 10 µM: 89%
MAPK9 (JNK2)
  inhibition at 10 µM: 79%
[2]
  inhibition at 10 µM: 44%
MAP3K19 (YSK4)
  inhibition at 10 µM: 98%
CDK9/cyclin T1
  inhibition at 10 µM: 82%
GRK4
  inhibition at 10 µM: 61%
AMPK (A2/B2/G3)
  inhibition at 10 µM: 98%
HIPK4
  inhibition at 10 µM: 85%
NTRK2 (TRKB)
  inhibition at 10 µM: 99%
FGFR3 K650E
  inhibition at 10 µM: 97%
LRRK2
  inhibition at 10 µM: 100%
ULK2
  inhibition at 10 µM: 56%
STK33
  inhibition at 10 µM: 81%
WNK2
  inhibition at 10 µM: 1%
TGFBR2
  inhibition at 10 µM: 77%
ZAK
  inhibition at 10 µM: 77%
PASK
  inhibition at 10 µM: 10%
LIMK2
  inhibition at 10 µM: 24%
KIT T670E
  inhibition at 10 µM: 89%
CASK
  inhibition at 10 µM: -63%
AMPK A2/B1/G1
  inhibition at 10 µM: 99%
LCK
  inhibition at 10 µM: 97%
AMPK (A1/B2/G2)
  inhibition at 10 µM: 99%
CHEK2 (CHK2)
  inhibition at 10 µM: 100%
MET D1228H
  inhibition at 10 µM: 75%
RET V804M
  inhibition at 10 µM: -5%
